Four compounds from US20250002480A1, “AMINOHETEROARYL KINASE INHIBITORS” (ALLORION THERAPEUTICS INC, priority 2021, published 2025) can be followed below.

Assay type in all cases: biochemical
Assay [1] concerns the target CDK6/Cyclin D1 (Homo sapiens, UniProt Q00534). In words: CDK6/Cyclin D1 in vitro kinase inhibition (Biological Example 1 of WO2022/111621). The method, then: (§1) Biological activity for representative compounds of the present disclosure were tested according to those described in Biological Example 1 in PCT/CN2021/133429, published as WO2022/111621 on Jun. 2, 2022.
The target in assay [2] is CDK4/Cyclin D1 (Homo sapiens, UniProt P11802). Nature of the assay: CDK4/Cyclin D1 in vitro kinase inhibition (Biological Example 1 of WO2022/111621). The method, then: as §1
In assay [3] the target is CDK7/Cyclin H/MAT1 (Homo sapiens, UniProt P50613). Nature of the assay: CDK7/Cyclin H/MAT1 in vitro kinase inhibition (Biological Example 1 of WO2022/111621). The method, then:
as §1

Assay [4] deals with CDK9/Cyclin T1 (Homo sapiens, UniProt P50750). In words: CDK9/Cyclin T1 in vitro kinase inhibition (Biological Example 1 of WO2022/111621). The method, then:
as §1

Some results are limits rather than exact numbers.

Sequence of CDK6/Cyclin D1 (Q00534 whole entry): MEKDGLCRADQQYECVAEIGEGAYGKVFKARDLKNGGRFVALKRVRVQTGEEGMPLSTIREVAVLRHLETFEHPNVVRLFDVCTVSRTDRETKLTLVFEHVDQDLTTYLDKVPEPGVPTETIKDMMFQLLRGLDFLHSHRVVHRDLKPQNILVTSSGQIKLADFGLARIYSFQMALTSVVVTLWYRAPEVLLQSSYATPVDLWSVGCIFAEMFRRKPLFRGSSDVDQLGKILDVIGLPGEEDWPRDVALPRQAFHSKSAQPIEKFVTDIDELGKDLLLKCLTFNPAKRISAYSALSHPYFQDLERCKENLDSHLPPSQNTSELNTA
Sequence of CDK6/Cyclin D1 (P24385 whole entry partner): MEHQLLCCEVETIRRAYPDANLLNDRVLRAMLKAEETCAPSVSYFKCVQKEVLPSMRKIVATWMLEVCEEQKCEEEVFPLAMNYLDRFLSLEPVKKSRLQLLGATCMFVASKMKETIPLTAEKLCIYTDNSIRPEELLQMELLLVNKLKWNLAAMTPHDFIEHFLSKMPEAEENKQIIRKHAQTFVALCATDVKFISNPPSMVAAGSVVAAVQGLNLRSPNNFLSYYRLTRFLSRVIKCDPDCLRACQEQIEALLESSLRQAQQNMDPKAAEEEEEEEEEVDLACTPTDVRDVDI
Sequence of CDK7/Cyclin H/MAT1 (P50613 whole entry): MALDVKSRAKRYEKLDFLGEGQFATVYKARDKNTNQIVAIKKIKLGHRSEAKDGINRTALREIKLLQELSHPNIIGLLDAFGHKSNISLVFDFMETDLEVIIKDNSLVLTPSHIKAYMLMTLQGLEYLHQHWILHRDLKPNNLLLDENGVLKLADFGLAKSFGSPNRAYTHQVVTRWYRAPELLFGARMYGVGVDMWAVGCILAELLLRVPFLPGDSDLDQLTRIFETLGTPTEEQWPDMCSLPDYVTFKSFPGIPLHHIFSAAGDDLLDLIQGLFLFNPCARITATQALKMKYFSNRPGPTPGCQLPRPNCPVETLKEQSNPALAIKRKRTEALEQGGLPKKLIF
Sequence of CDK7/Cyclin H/MAT1 (P51946 whole entry partner): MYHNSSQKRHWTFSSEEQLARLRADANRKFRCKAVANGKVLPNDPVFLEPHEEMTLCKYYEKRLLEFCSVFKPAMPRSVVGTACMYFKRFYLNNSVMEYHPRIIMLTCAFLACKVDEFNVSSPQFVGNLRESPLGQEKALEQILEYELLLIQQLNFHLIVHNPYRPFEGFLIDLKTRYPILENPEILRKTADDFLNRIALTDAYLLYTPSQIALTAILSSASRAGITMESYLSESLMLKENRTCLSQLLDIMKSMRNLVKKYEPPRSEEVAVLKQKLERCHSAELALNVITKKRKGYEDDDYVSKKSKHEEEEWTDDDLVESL
Sequence of CDK7/Cyclin H/MAT1 (P51948 whole entry partner): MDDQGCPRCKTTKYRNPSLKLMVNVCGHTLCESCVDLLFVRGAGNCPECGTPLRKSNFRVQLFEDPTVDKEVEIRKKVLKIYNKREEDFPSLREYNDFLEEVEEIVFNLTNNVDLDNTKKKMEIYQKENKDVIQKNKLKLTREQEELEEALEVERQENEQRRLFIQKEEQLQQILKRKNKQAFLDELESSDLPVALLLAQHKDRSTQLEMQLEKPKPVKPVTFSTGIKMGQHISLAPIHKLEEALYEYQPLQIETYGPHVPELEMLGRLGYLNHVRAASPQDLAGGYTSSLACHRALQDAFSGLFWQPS
Sequence of CDK4/Cyclin D1 (P11802 whole entry): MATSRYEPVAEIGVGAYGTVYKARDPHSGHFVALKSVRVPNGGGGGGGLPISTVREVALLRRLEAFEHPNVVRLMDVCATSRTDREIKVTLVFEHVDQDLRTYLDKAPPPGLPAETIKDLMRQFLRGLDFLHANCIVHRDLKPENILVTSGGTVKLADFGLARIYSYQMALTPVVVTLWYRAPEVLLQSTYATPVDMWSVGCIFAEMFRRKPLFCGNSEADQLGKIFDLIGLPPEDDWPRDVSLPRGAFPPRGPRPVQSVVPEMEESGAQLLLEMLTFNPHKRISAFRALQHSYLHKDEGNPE
Sequence of CDK4/Cyclin D1 (P24385 whole entry partner): as the sequence (P24385 whole entry partner) above
Sequence of CDK9/Cyclin T1 (P50750 whole entry): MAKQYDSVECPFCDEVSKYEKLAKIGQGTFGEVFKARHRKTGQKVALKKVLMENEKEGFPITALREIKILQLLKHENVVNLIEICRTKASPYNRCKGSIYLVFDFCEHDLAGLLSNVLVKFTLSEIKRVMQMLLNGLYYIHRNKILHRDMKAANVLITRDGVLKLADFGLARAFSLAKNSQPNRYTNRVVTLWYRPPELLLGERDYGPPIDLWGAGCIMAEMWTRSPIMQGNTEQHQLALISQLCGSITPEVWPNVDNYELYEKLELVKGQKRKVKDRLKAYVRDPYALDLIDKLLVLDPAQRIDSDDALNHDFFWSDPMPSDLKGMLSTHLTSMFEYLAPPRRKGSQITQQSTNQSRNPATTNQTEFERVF
Sequence of CDK9/Cyclin T1 (O60563 whole entry partner): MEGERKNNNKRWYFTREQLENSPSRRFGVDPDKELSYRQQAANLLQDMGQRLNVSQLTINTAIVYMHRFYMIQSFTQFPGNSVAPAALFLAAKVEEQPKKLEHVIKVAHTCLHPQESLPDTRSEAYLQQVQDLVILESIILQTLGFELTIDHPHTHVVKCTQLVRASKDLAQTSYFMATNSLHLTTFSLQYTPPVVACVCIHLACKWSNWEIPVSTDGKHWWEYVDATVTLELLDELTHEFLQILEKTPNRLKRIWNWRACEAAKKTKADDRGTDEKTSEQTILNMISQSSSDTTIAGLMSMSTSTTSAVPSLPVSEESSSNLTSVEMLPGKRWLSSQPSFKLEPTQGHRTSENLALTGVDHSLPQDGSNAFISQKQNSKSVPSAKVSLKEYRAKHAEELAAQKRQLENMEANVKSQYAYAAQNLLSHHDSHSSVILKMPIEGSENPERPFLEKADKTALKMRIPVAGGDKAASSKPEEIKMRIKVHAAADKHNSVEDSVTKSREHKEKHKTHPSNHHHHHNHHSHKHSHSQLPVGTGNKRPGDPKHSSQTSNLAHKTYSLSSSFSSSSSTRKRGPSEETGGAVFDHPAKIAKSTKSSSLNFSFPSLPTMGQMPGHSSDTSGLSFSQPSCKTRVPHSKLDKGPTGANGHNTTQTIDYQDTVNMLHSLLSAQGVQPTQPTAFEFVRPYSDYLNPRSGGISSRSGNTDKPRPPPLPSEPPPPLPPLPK

As for `[2H]C([2H])([2H])NS(=O)(=O)c1ccc(Nc2ncc(C(F)(F)F)c(O[C@@H]3CCOC[C@H]3O)n2)cc1` [Compound E3], the IC50 (commonly the concentration needed to halve the response being measured) in assay [1] is no less than 1000 nM.
On to `[2H]C([2H])([2H])NS(=O)(=O)c1ccc(Nc2ncc(C(F)(F)F)c(O[C@H]3CCOC[C@@H]3O)n2)cc1` [Compound E4], for which the IC50 in assay [2], in assay [1] and in assay [3] was no less than 1000 nM throughout.
Take `[2H]C([2H])([2H])NS(=O)(=O)c1ccc(Nc2ncc(C(F)(F)F)c(O[C@H]3CCOC[C@H]3O)n2)cc1` [Compound E2]: the IC50 in assay [2], in assay [1] and in assay [3] was no less than 1000 nM throughout.
For the compound `NS(=O)(=O)c1ccc(Nc2ncc(C(F)(F)F)c(O[C@@H]3CCOC[C@@H]3O)n2)cc1` [Compound E7, 4-((4-(((3S,4R)-3-hydroxytetrahydro-2H-pyran-4-yl)oxy)-5-(trifluoromethyl)pyrimidin-2-yl)amino)benzenesulfonamide], the IC50 in assay [4] and in assay [3] was no less than 1000 nM in each case.
